Assay results published in ChEMBL document CHEMBL5143608, “Peptide-based long-acting co-agonists of GLP-1 and cholecystokinin 1 receptors as novel anti-diabesity agents” (Eur J Med Chem, 2022).
Active and inactive are the calls of the source. No cut-off for these calls is given here.

Assays:
[1] = tested on: Mus musculus; test: Hypoglycemic activity in ICR mouse assessed as improvement in glucose tolerance at 25 nmol/kg, ip administered 30 min before oral glucose administration and measured upto 120 mins by OGTT; format: functional, organism-based
[2] = tested on: Mus musculus; test: Anti-diabesity activity in DIO C57BL/6 mouse assessed as improvement in insulin sensitivity at 25 nmol/kg, sc administered every 2 days for 10 days by insulin tolerance test; format: functional, organism-based; conditions: time 10.0 day
[3] = tested on: Mus musculus; test: Anti-diabesity activity against db/db mouse assessed as increase in pancreas mass at 25 nmol/kg, sc administered every 2 days for 12 weeks; format: functional, organism-based
[4] = tested on: Mus musculus; test: Anti-diabesity activity against DIO C57BL/6 mouse assessed as improvement in glucose tolerance at 25 nmol/kg, sc administered every 2 days for 3 weeks by OGTT; format: functional, organism-based; conditions: time 21.0 day
[5] = Cmax in Sprague-Dawley rat at 25 nmol/kg, sc by LC-MS/MS analysis; format: ADME, organism-based; parameters: dose 25 nmol/kg, route sc; conditions: in vivo
[6] = tested on: Mus musculus; test: Anti-diabesity activity against DIO C57BL/6 mouse assessed as reduction in body weight at 25 nmol/kg, sc administered every 2 days for 3 weeks; format: functional; conditions: C57BL/6, 504 h, time 21 day
[7] = Pancreatic insult activity in db/db mouse assessed as increase in amylase level in serum at 25 nmol/kg, sc administered every 2 days for 12 weeks; format: toxicity, organism-based; conditions: in vivo, 2016 h
[8] = Renal toxicity in db/db mouse assessed as blood urea nitrogen level in serum at 25 nmol/kg, sc administered every 2 days for 12 weeks; format: organism-based; conditions: in vivo, 2016 h
[9] = tested on: Mus musculus; test: Anti-diabesity activity in db/db mouse assessed as decrease in fasted blood glucose level at 100 nmol/kg, sc administered once daily for 7 days; format: functional, organism-based; conditions: time 7.0 day
[10] = tested on: Mus musculus; test: Anti-diabesity activity against DIO C57BL/6 mouse assessed as increase in adiponectin level in plasma at 25 nmol/kg, sc administered every 2 days for 3 weeks by ELISA; format: functional, organism-based; conditions: time 21.0 day
[11] = tested on: Mus musculus; test: Anti-diabesity activity in DIO C57BL/6 mouse assessed as reduction in cumulative food intake at 100 nmol/kg, sc administered once daily for 7 days; format: functional, organism-based; conditions: time 7.0 day
[12] = Hepatotoxicity in DIO C57BL/6 mouse assessed as aspartate aminotransferase level in plasma at 100 nmol/kg, sc administered once daily for 7 days; format: toxicity, organism-based; conditions: in vivo, 168 h, time 7 day
[13] = Pancreatic insult activity in DIO C57BL/6 mouse assessed as amylase level in serum at 25 nmol/kg, sc administered every 2 days for 3 weeks; format: toxicity, organism-based; conditions: in vivo, 504 h, time 21 day
[14] = Hepatotoxicity in DIO C57BL/6 mouse assessed as alanine aminotransferase level in serum at 25 nmol/kg, sc administered every 2 days for 3 weeks; format: toxicity, organism-based; conditions: in vivo, 504 h, time 21 day
[15] = tested on: Mus musculus; test: Anti-diabesity activity against db/db mouse assessed as reduction in fasting blood glucose level at 25 nmol/kg, sc administered every 2 days for 6 weeks followed by saline treatment for 6 weeks and measured during second 6 weeks; format: functional, organism-based
[16] = tested on: Mus musculus; test: Anti-diabesity activity against db/db mouse assessed as reduction in fasted blood glucose level at 25 nmol/kg, sc administered every 2 days for 3 weeks; format: functional, organism-based; conditions: time 21.0 day
[17] = Pancreatic insult activity in db/db mouse assessed as increase in amylase level in plasma at 100 nmol/kg, sc administered once daily for 7 days; format: toxicity, organism-based; conditions: in vivo, 168 h, time 7 day
[18] = Hepatotoxicity in db/db mouse assessed as aspartate aminotransferase level in plasma at 25 nmol/kg, sc administered every 2 days for 12 weeks; format: toxicity, organism-based; conditions: in vivo, 2016 h
[19] = molecular target: T1, Glucagon-like peptide 1 receptor (Homo sapiens, UniProt P43220); test: Agonist activity at human GLP-1R expressed in CHO cells assessed as cAMP release incubated for 20 min by HTRF analysis; format: functional, cell-based
T1 sequence (P43220 whole entry): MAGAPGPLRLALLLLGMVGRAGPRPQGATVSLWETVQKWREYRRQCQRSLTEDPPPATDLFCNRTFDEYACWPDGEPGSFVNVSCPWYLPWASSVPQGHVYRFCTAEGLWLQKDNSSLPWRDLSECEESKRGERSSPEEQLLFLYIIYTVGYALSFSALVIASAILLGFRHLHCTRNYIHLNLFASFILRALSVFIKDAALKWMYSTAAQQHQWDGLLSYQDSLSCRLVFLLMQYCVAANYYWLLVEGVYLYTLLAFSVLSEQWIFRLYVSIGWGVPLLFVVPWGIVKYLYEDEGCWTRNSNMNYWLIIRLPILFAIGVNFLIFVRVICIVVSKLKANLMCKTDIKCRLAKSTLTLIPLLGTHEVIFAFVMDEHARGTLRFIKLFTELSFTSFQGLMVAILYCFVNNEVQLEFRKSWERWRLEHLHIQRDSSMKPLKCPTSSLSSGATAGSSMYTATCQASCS

[20] = molecular target: T1, Glucagon-like peptide 1 receptor; test: Agonist activity at human GLP-1R expressed in HEK293 cells assessed as cAMP release incubated for 20 min by HTRF analysis; format: functional, cell-based; conditions: hek293

Cmax [5] | EC50 [19] | EC50 [20] | Compound | Activity [1] | Activity [2] | Activity [3] | Activity [4] | inhibition in vivo at 0.025 µmol/kg [6] | Activity [7] | Activity [8] | Activity [9] | Activity [10] | Activity [11] | Activity [12] | Activity [13] | Activity [14] | Activity [15] | Activity [16] | Activity [17] | Activity [18]
341 ng/mL | – | – | CCCC[C@H](NC(=O)[C@H](Cc1ccc(CS(=O)(=O)O)cc1)NC(=O)[C@H](CC(=O)O)NC(=O)COCCOCCNC(=O)COCCOCCNC(=O)[C@H](CCCNC(=N)N)NC(=O)CNC(=O)[C@H](CCCCN)NC(=O)[C@@H](NC(=O)[C@H](CC(C)C)NC(=O)[C@H](Cc1c[nH]c2ccccc12)NC(=O)[C@H](C)NC(=O)[C@@H](NC(=O)[C@H](Cc1ccccc1)NC(=O)[C@H](CCC(=O)O)NC(=O)[C@H](CCCCNC(=O)COCCOCCNC(=O)COCCOCCNC(=O)CC[C@H](NC(=O)CCCCCCCCCCCCCCCCC(=O)O)C(=O)O)NC(=O)[C@H](C)NC(=O)[C@H](C)NC(=O)[C@H](CCC(N)=O)NC(=O)CNC(=O)[C@H](CCC(=O)O)NC(=O)[C@H](CC(C)C)NC(=O)[C@H](Cc1ccc(O)cc1)NC(=O)[C@H](CO)NC(=O)[C@H](CO)NC(=O)[C@@H](NC(=O)[C@H](CC(=O)O)NC(=O)[C@H](CO)NC(=O)[C@@H](NC(=O)[C@H](Cc1ccccc1)NC(=O)[C@@H](NC(=O)CNC(=O)[C@H](CCC(=O)O)NC(=O)[C@H](C)NC(=O)[C@@H](N)Cc1cnc[nH]1)[C@@H](C)O)[C@@H](C)O)C(C)C)[C@@H](C)CC)C(C)C)C(=O)NCC(=O)N[C@@H](Cc1c[nH]c2ccccc12)C(=O)N[C@@H](CCCC)C(=O)N(C)[C@H](CC(=O)O)C(=O)N(C)[C@@H](Cc1ccccc1)C(N)=O | Active | Active | Active | Active | 27.3% | Toxic | Non-Toxic | Active | Active | Active | Non-Toxic | Non-Toxic | Non-Toxic | Active | Active | Non-Toxic | Non-Toxic
461 ng/mL | 0.057 nM | 0.074 nM | CCCC[C@H](NC(=O)[C@H](Cc1ccc(CS(=O)(=O)O)cc1)NC(=O)[C@H](CC(=O)O)NC(=O)COCCOCCNC(=O)COCCOCCNC(=O)[C@H](CCCCN)NC(=O)CNC(=O)[C@H](CCCCN)NC(=O)[C@@H](NC(=O)[C@H](CC(C)C)NC(=O)[C@H](Cc1c[nH]c2ccccc12)NC(=O)[C@H](CCC(=O)O)NC(=O)[C@@H](NC(=O)[C@H](Cc1ccccc1)NC(=O)[C@H](CCC(=O)O)NC(=O)[C@H](CCCCNC(=O)COCCOCCNC(=O)COCCOCCNC(=O)CC[C@H](NC(=O)CCCCCCCCCCCCCCCCC(=O)O)C(=O)O)NC(=O)[C@H](C)NC(=O)[C@H](C)NC(=O)[C@H](CCC(=O)O)NC(=O)[C@H](CCC(=O)O)NC(=O)[C@H](CCC(=O)O)NC(=O)[C@H](CC(C)C)NC(=O)[C@@H](NC(=O)[C@H](CCC(=O)O)NC(=O)[C@@H](NC(=O)[C@@H](NC(=O)[C@H](CC(=O)O)NC(=O)[C@H](CC(N)=O)NC(=O)[C@@H](NC(=O)[C@H](Cc1ccc(O)cc1)NC(=O)[C@@H](NC(=O)CNC(=O)[C@H](CCC(=O)O)NC(=O)C(C)(C)NC(=O)[C@@H](N)Cc1cnc[nH]1)[C@@H](C)O)[C@@H](C)O)C(C)C)[C@@H](C)O)[C@@H](C)O)[C@@H](C)CC)[C@@H](C)CC)C(=O)NCC(=O)N[C@@H](Cc1c[nH]c2ccccc12)C(=O)N[C@@H](CCCC)C(=O)N(C)[C@H](CC(=O)O)C(=O)N(C)[C@@H](Cc1ccccc1)C(N)=O | – | Active | Active | Active | 29.8% | Toxic | Non-Toxic | Active | Active | Active | Non-Toxic | Non-Toxic | Non-Toxic | Active | Active | Non-Toxic | Non-Toxic
